{
  "source": "patent US20080312298A1",
  "about": "“Methods for Identification of Modulators of Carm1 Methyl Transferase Activity” (priority 2007, published 2008)",
  "target": "T1, CARM1 (Homo sapiens, UniProt Q86X55)",
  "T1 construct": "made in house; host or cells: E. coli",
  "T1 sequence (Q86X55 1-608)": "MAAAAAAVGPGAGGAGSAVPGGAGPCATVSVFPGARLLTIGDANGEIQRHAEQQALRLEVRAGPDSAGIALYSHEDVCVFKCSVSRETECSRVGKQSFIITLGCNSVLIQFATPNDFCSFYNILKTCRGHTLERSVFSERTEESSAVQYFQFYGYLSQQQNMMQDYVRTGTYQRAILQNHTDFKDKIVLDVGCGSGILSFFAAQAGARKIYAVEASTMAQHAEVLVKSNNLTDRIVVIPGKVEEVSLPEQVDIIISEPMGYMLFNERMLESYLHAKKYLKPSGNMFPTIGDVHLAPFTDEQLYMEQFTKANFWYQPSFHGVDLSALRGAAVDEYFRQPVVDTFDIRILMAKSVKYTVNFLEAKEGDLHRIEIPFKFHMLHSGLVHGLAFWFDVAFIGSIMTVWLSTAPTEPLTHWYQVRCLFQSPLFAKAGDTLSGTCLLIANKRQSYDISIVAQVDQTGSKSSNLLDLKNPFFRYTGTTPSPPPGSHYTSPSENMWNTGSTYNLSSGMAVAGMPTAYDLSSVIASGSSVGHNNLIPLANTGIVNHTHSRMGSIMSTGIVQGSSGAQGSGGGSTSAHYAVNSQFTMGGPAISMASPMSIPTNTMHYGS",
  "assay": "CARM1 biochemical assay (scintillation proximity assay, SPA)",
  "text": "CARM1 biochemical Assay. (e.g. for Determining IC50 Values).\nA fusion protein of CARM1 to MBP (Maltose Binding protein), expressed and purified from E. coli, was used to methylate peptides derived from either the N-terminus of histone H3 (acetyl-STGGKAPRKQLATKAARK-biotin) or from PABP1 (acetyl-[…]-biotin). The H3 peptide has two residues R17 and R26 that have been reported to be methylated by CARM1 (Brandon et al., Biochemistry, 2001, 40(19):5747-5756). The PABP1 peptide also contains two arginine residues, R455 and R460, similarly methylated by CARM1 (Lee and Bedford, EMBO Rep. 2002, 3(3):268-73). The methylation reaction was conducted in the presence of tritiated S-Adenosyl-L-Methionine (3H-SAM), 1 μg MBP-CARM1, 250 nM peptide substrate, and assay buffer (50 mM Tris pH 8.0, 0.03% BSA, 3 mM DTT). The reaction was allowed to proceed at room temperature for 75 minutes before being stopped by Stop buffer (25 mM Tris pH 7.4, 100 mM EDTA, 1% Tween 20) and Streptavidin-coated SPA beads (2 mg/ml) (GE Healthcare). The beads were allowed to settle overnight before the signal was counted in a TOPCOUNT. The final SAM concentration in the reaction and the ratio of tritiated to unlabelled SAM was adjusted to give a good signal/noise. […]",
  "data": [
    {"smiles": "CNC[C@H](O)c1cccc(O)c1", "values": [
      {"measurement": "mode of inhibition with respect to SAM", "value": "SAM competitive"},
      {"measurement": "IC50", "setting": "at saturating SAM concentrations", "value": "low micromolar"}
    ]}
  ]
}
